For data set [1], the system named is DU-145. The data set is described as follows: NCI 60 cell line screen (SRB), Prostate Cancer. Conditions: DU-145 (Prostate Cancer). It counts as cell-based.
The nature of data set [2]: Stability at room temperature. The settings on record: crystalline solid. It counts as physicochemical.
The subject of data set [3] is P. berghei. The settings on record: P. berghei-infected mice; Klayman 1985; cited from earlier work.
Data set [4] concerns Ehrlich ascites tumor (EAT) cells. The settings on record: MTT assay, Woerdenbag et al. 1993; cited from earlier work. A general note: Tetrazolium assays rely on reduction of a dye to a coloured formazan, in cell work by metabolically active cells.
Data set [5] has as its system P388 leukemia. The settings on record: NCI Report on NSC 369397; cited from earlier work.
Data set [6] has as its system Plasmodium vivax and Plasmodium falciparum. The settings on record: 2099 cases of malaria, different dosage forms of QHS; 1979 study; cited from earlier work.
Data set [7] has as its system P. falciparum. Conditions: two Hanian strains; Ye et al. 1983; cited from earlier work.
Data set [8] has as its system 60 cell line panel. The settings on record: cell line panels consisting of 60 lines; cited from earlier work.
The conditions of data set [9]: cited from earlier work.

These results are taken from USRE38117E1, “Trioxane dimer compound having antiproliferative and antitumor activities” (Hauser, Inc., priority 1995, dated 2003).

Structures are written as SMILES.

For `COC1OC2(C)CCC3CCCC(CCOC(=O)c4cccc(C(=O)OCCC5CCCC6CCC7(C)OOC56C(OC)O7)c4)C31OO2` (centres unmarked) [Compound 10, Trioxane Bis-ester Dimer], in [1], the Log10GI50 is −4.53 M, the Log10LC50 is recorded as more than −4.30 M and the Log10TGI was more than −4.30 M. Further, the stability entry in [2] is given as “stable for prolonged periods at room temperature”.
For `CC(=O)O[C@H]1C(=O)[C@@]2(C)[C@H]([C@H](OC(=O)c3ccccc3)[C@]3(O)C[C@H](OC(=O)[C@H](O)[C@@H](NC(=O)c4ccccc4)c4ccccc4)C(C)=C1C3(C)C)[C@]1(OC(C)=O)CO[C@@H]1C[C@@H]2O` [Paclitaxel, paclitaxel, reference compound], in [1], the Log10GI50 was −9.38 M, the Log10LC50 is given as more than −4.00 M and the Log10TGI is reported as more than −4.00 M.
As for `C[C@@H]1CC[C@H]2[C@@H](C)C(=O)O[C@@H]3O[C@@]4(C)CC[C@@H]1[C@]32OO4` [QHS, 3,6,9-trimethyl-9,10b-epidioxyperhydropyrano[4,3,2-jk]benzoxepin-2-one, reference compound], the “SD90 (parasitemia 90 percent suppressed)” value in [3] was 6.20 mg/kg. For the same compound, the “ID50 / IC50 (drug concentration causing 50% growth inhibition of the tumor cells)” value in [4] was 29.8 µM. In addition, the “activity against P388 leukemia” value in data set [5] is “inactive”. Further, the clinical outcome in data set [6] is “clinical cure of all patients”. In addition, in data set [7], the “potency in vitro compared with chloroquine” value is reported as “comparable to that of chloroquine”. For the same compound, in data set [8], the anticancer activity result was “very little anticancer activity”. Besides, in [9], the solubility in water result was “insolubility in water”.
